Source: ChEMBL document CHEMBL3272295, “Drugs derived from cannabinoids. 5. delta6a,10a-Tetrahydrocannabinol and heterocyclic analogs containing aromatic side chains” (J Med Chem, 1976)
Structures can show the parent of a compound that is named as a salt.

Tests used:
Rattus norvegicus [1] = assay: Antianxiety activity in Long-Evans rat assessed as reduction in motor activity at 5 mg/kg, po after 2 hrs relative to vehicle-treated control; type: functional; set-up: scale not given: the % may be the effect or the level left
Mus musculus [2] = assay: Antianxiety activity in albino BALB/cJ mouse assessed as reduction in footshock-induced fighting behavior at 10 mg/kg, po after 30 to 90 mins; type: functional; set-up: scale not given: the % may be the effect or the level left
Rattus norvegicus [3] = assay: Antihypertensive activity in spontaneously hypertensive rat model assessed as reduction in blood pressure at 10 mg/kg, po after 3 hrs; type: functional; set-up: scale not given: the % may be the effect or the level left
Mus musculus [4] = assay: Analgesic activity in mouse assessed as inhibition of acetic acid-induced writhing at 40 mg/kg, po administered 30 mins prior to acetic acid challenge measured after 5 mins for 20 mins; type: functional
Rattus norvegicus [5] = assay: Antihypertensive activity in spontaneously hypertensive rat model assessed as reduction in blood pressure at 10 mg/kg, po after 24 hrs; type: functional; set-up: scale not given: the % may be the effect or the level left
Rhesus monkey = assay: Antianxiety activity in po dosed rhesus monkey assessed as antiagressive behavior measured every hour post dosing; type: functional; settings: Macaca mulatta, read-out: MED
[6] = Acute toxicity in po dosed mouse; type: organism-based; settings: in vivo
Canis familiaris = assay: Antianxiety activity in po dosed dog assessed as ataxia administered as single dose measured up to 24 hrs; type: functional; settings: Canis lupus familiaris, read-out: MED
Rattus norvegicus [7] = assay: Antipsychotic activity in rat assessed as reduction of methamphetamine-induced hyperactivity at 5 mg/kg, po administered prior to methamphetamine challenge relative to vehicle-treated control; type: functional; set-up: scale not given: the % may be the effect or the level left
Rattus norvegicus [8] = species: Rattus norvegicus; assay: animal or person; type: functional; settings: Charles River, route oral
Description: Antidiarrheal activity in Charles River rat assessed as inhibition of castor oil-induced diarrhea by measuring protected animals at 0.5 mg/kg, po administered 1 hr prior to castor oil challenge measured after 1 hr relative to vehicle-treated control

Rattus norvegicus [9] = assay: Antidiarrheal activity in Charles River rat assessed as inhibition of castor oil-induced diarrhea by measuring protected animals at 0.2 mg/kg, po administered 1 hr prior to castor oil challenge measured after 1 hr relative to vehicle-treated control; type: functional
Rattus norvegicus [10] = assay: Antidiarrheal activity in Charles River rat assessed as inhibition of castor oil-induced diarrhea by measuring protected animals at 0.1 mg/kg, po administered 1 hr prior to castor oil challenge measured after 1 hr relative to vehicle-treated control; type: functional
Rattus norvegicus [11] = assay: Antidiarrheal activity in Charles River rat assessed as inhibition of castor oil-induced diarrhea by measuring protected animals at 0.05 mg/kg, po administered 1 hr prior to castor oil challenge measured after 1 hr relative to vehicle-treated control; type: functional
Rattus norvegicus [12] = assay: Analgesic activity in po dosed Sprague-Dawley rat after 15 to 90 mins by tail flick test; type: functional
Rattus norvegicus [13] = assay: Antihypertensive activity in spontaneously hypertensive rat model assessed as reduction in blood pressure at 3 mg/kg, po after 24 hrs; type: functional; set-up: scale not given: the % may be the effect or the level left
Rattus norvegicus [14] = assay: Antihypertensive activity in spontaneously hypertensive rat model assessed as reduction in blood pressure at 3 mg/kg, po after 3 hrs; type: functional; set-up: scale not given: the % may be the effect or the level left
Mus musculus [15] = assay: Anticonvulsant activity in po dosed mouse assessed as dose required to protect 80% of animal measured after 1 to 4 hrs by audiogenic seizure test; type: functional
Felis catus [16] = assay: Hypnotic activity in cat assessed as increase in total sleep time at 0.5 mg/kg administered orally through diet measured for 12 hrs by EEG analysis; type: functional; settings: route oral
Felis catus [17] = assay: Hypnotic activity in cat assessed as increase in non-REM sleep time at 0.5 mg/kg administered orally through diet measured for 12 hrs by EEG analysis; type: functional; settings: route oral
Mus musculus [18] = assay: Analgesic activity in po dosed mouse assessed as inhibition of acetic acid-induced writhing administered 30 mins prior to acetic acid challenge measured after 5 mins for 20 mins; type: functional
Rattus norvegicus [19] = assay: Antipsychotic activity in rat assessed as reduction of methamphetamine-induced hyperactivity at 2.5 mg/kg, po administered prior to methamphetamine challenge relative to vehicle-treated control; type: functional; set-up: scale not given: the % may be the effect or the level left
Rattus norvegicus [20] = assay: Antihypertensive activity in spontaneously hypertensive rat model assessed as reduction in blood pressure at 0.3 mg/kg, po after 3 hrs; type: functional; set-up: scale not given: the % may be the effect or the level left
Mus musculus [21] = assay: Antianxiety activity in albino BALB/cJ mouse assessed as reduction in footshock-induced fighting behavior at 5 mg/kg, po after 30 to 90 mins; type: functional; set-up: scale not given: the % may be the effect or the level left
Rattus norvegicus [22] = assay: Antihypertensive activity in spontaneously hypertensive rat model assessed as reduction in blood pressure at 0.3 mg/kg, po after 24 hrs; type: functional; set-up: scale not given: the % may be the effect or the level left
Rattus norvegicus [23] = assay: Antianxiety activity in Long-Evans rat assessed as reduction in motor activity at 10 mg/kg, po after 2 hrs relative to vehicle-treated control; type: functional; set-up: scale not given: the % may be the effect or the level left
Mus musculus [24] = assay: Antidepressant activity in po dosed mouse assessed as potentiation of DOPA-induced effect administered 4 hrs prior to DOPA challenge; type: functional; settings: read-out: MED
Rattus norvegicus [25] = assay: Antisecretory activity in Sprague-Dawley rat assessed as decrease in pepsin output at 50 mg/kg, po administered 30 mins prior to pylorus ligation measured after 4 hrs relative to control; type: functional; set-up: scale not given: the % may be the effect or the level left
Rattus norvegicus [26] = assay: Antisecretory activity in Sprague-Dawley rat assessed as decrease in acidity at 50 mg/kg, po administered 30 mins prior to pylorus ligation measured after 4 hrs relative to control; type: functional; set-up: scale not given: the % may be the effect or the level left
Rattus norvegicus [27] = assay: Antisecretory activity in Sprague-Dawley rat assessed as decrease in volume at 50 mg/kg, po administered 30 mins prior to pylorus ligation measured after 4 hrs relative to control; type: functional; set-up: scale not given: the % may be the effect or the level left
Rattus norvegicus [28] = assay: Increase in pepsin concentration in Sprague-Dawley rat at 50 mg/kg, po administered 30 mins prior to pylorus ligation measured after 4 hrs relative to control; type: functional
Rattus norvegicus [29] = assay: Antisecretory activity in Sprague-Dawley rat assessed as decrease in acid output at 50 mg/kg, po administered 30 mins prior to pylorus ligation measured after 4 hrs relative to control; type: functional; set-up: scale not given: the % may be the effect or the level left

Row | Compound | Activity (Rattus norvegicus [1]) [%] | Activity (Mus musculus [2]) [%] | inhibition in vivo at 40 mg/kg (Mus musculus [4]) [%] | minimal effective dose (Rhesus monkey) [mg/kg] | LD50 [6] [mg/kg] | minimal effective dose (Canis familiaris) [mg/kg] | Activity (Rattus norvegicus [7]) [%] | inhibition in vivo at 0.5 mg/kg (Rattus norvegicus [8]) [%] | inhibition in vivo at 0.2 mg/kg (Rattus norvegicus [9]) [%] | inhibition in vivo at 0.1 mg/kg (Rattus norvegicus [10]) [%] | Time (Felis catus [16]) [min] | Time (Felis catus [17]) [min] | ED50 (Mus musculus [18]) [mg/kg] | Activity (Mus musculus [21]) [%] | also measured
1 | CC(CCCc1ccc(F)cc1)c1cc(O)c2c(c1)OC(C)(C)C1=C2CCC1 (configuration not stated) | 41 | 47 | 22 | 10 | ≥ 1000 | 10 | 58 | 20 | – | – | – | – | – | – | Activity (Rattus norvegicus [3]): 3%; Activity (Rattus norvegicus [5]): 30%
2 | CCOC(=O)C1(c2ccccc2)CCN(CCC(C#N)(c2ccccc2)c2ccccc2)CC1 [DIPHENOXYLATE HYDROCHLORIDE] | – | – | – | – | – | – | – | – | 95 | 67 | – | – | – | – | inhibition in vivo at 0.05 mg/kg (Rattus norvegicus [11]): 46%
3 | CCCCCC(C)C(C)c1cc(O)c2c(c1)OC(C)(C)C1=C2CC(C)CC1 (configuration not stated) | 96 | 92 | – | 10 | ≥ 1000 | 1 | 70 | – | 80 | 50 | 62 | 122 | 3 | 58 | ED50 (Rattus norvegicus [12]): 1.4 mg/kg; Activity (Rattus norvegicus [13]): 28%; Activity (Rattus norvegicus [14]): 37%; Activity (Mus musculus [15]): 10 mg/kg; Activity (Rattus norvegicus [19]): 48%; Activity (Rattus norvegicus [20]): 19%; Activity (Rattus norvegicus [22]): 12%
4 | Br.CC(CCCc1ccc(F)cc1)c1cc(O)c2c(c1)OC(C)(C)C1=C2C2CCN1CC2 (configuration not stated) | 23 | – | 32 | 1 | ≥ 1000 | 1 | 4 | 10 | – | – | – | – | – | 23 | Activity (Rattus norvegicus [23]): 46%; minimal effective dose (Mus musculus [24]): 20 mg/kg
5 | C#CCN1CCC2=C(C1)c1c(OC(=O)CCCN3CCCCC3)cc(C(C)CCCc3ccc(F)cc3)cc1OC2(C)C.Cl (configuration not stated) | 87 | 23 | – | 1 | 750 | 0.4 | 62 | 40 | – | – | 47 | 121 | 10.3 | – | Activity (Rattus norvegicus [25]): 1.9%; Activity (Rattus norvegicus [26]): 42.4%; Activity (Rattus norvegicus [27]): 24.9%; Activity (Rattus norvegicus [28]): 32%; Activity (Rattus norvegicus [29]): 56.1%
